Data set [1] relates to mice with DSS-induced colitis. In words: DSS-induced colitis efficacy (colon length, body weight, colon damage). The format is in vivo, C57BL/6 mice. The protocol:
To evaluate the anti-inflammatory action of the developed VCAM1-IRAK4 NC, mice were administered with 5% DSS in drinking water for 7 days and injected IV with the VCAM1-targeted nanocarriers loaded with IRAK4 inhibitor (23 mg kg^−1) on day 0, 2, 4, and 6 of DSS treatment initiation (Y. Lec, K. Sugihara, M. G. Gillilland, 3rd, S. Jon, N. Kamada, J. J. Moon, Nat. Mater. 2020, 19, 118). […] A healthy control group without DSS administration and a DSS-induced colitis group without the injection of VCAM1-IRAK4 NC were also prepared. […] Pharmacother. 2022, 153, 113459).
In vivo evaluation of VCAM1-IRAK4 NC in mice with DSS-induced colitis. […] To evaluate the accumulation of VCAM1-targeted nanocarriers in inflamed tissue, the shaved mice with induced colitis were injected IV with SiNc-loaded IRAK4 NC and VCAM1-IRAK4 NC, and NIR fluorescence images of the excised colons and major organs were recorded 24 hours post-administration. The fluorescence images were obtained using a Pearl Impulse fluorescence imaging system (LI-COR, Lincoln, NE) and the mean fluorescence intensity of region of interest was obtained using Pearl Impulse Software (LI-COR, Lincoln, NE). […] Colon length without the cecum was measured, and colon tissues were gently washed with PBS. […] NucBlue™ Fixed Cell ReadyProbes™ Reagent (ThermoFisher Scientific, Waltham, MA, USA) was used to stain the nuclei. […]

The conditions of data set [2]: cited from earlier work.

In turn, `CC[C@@H]1[C@H](F)C(=O)N[C@@H]1COc1nccc2cc(C(N)=O)c(OC)cc12` [PF-06650833, zimlovisertib] registered an average colon length in data set [1] (free drug in 60% saline, 30% PEG400, 10% DMSO, 23 mg kg^−1, 4 IV injections, healthy 5.97±0.18, DSS saline 4.87±0.12 (FIG. 15A)) of 4.74±0.35 cm. For the same compound, in data set [1] (free drug, 23 mg kg^−1, 4 IV injections every 2 days), the “therapeutic effect on colitis” value was “no noticeable therapeutic effect”. Besides, the absolute oral bioavailability result in data set [2] (oral) is on record as “low”. For the same compound, in data set [2] (two phase I clinical trials), the dose-limiting side effects result is on record as “no dose-limiting side effects were observed” and the tolerability entry is reported as “well tolerated”.

These data come from patent US20250073223A1, “TARGETED NANOCARRIERS FOR SYSTEMIC DELIVERY OF IRAK4 INHIBITORS TO INFLAMED TISSUES” (Oregon State University, priority 2023, published 2025).
